Assay [1] deals with T1, Membrane-bound ghrelin O-acyltransferase MBOAT4 (Mus musculus) (UniProt P0C7A3).
T1 sequence (whole entry): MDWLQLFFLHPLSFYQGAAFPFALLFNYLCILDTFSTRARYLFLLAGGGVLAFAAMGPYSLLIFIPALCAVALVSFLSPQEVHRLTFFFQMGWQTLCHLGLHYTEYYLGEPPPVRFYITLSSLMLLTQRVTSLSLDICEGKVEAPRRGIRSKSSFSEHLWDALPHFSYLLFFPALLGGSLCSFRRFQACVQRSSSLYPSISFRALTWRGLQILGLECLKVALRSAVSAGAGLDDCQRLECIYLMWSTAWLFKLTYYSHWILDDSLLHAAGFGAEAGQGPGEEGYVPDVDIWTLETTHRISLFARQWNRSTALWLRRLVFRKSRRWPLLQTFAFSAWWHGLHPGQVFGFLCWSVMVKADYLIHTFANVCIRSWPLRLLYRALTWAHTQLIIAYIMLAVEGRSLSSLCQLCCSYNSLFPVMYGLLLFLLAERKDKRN
The experiment in a line: Inhibition of His10-tagged mouse GOAT expressed in baculovirus infected Sf9 cells assessed as reduction in specific acyl transfer from tritiated-octanoyl CoA to recombinant His-tagged pro-ghrelin.

Assay [2] addresses T1, Membrane-bound ghrelin O-acyltransferase MBOAT4 (Mus musculus). In words: Inhibition of His10-tagged mouse GOAT expressed in baculovirus infected Sf9 cells assessed as reduction in specific acyl transfer from tritiated-octanoyl CoA to recombinant His-tagged pro-ghrelin at 500 uM.
Assay [3] has the same target. The experiment in a line: Inhibition of His10-tagged mouse GOAT expressed in baculovirus infected Sf9 cells assessed as reduction in specific acyl transfer from tritiated-octanoyl CoA to recombinant His-tagged pro-ghrelin at 100 uM.
Assay [4] has the same target. The experiment in a line: Inhibition of His10-tagged mouse GOAT expressed in baculovirus infected Sf9 cells assessed as reduction in specific acyl transfer from tritiated-octanoyl CoA to recombinant His-tagged pro-ghrelin at <500 uM.
In assay [5] the target is T2, Membrane-bound ghrelin O-acyltransferase MBOAT4 (Homo sapiens) (UniProt Q96T53).
T2 sequence (whole entry): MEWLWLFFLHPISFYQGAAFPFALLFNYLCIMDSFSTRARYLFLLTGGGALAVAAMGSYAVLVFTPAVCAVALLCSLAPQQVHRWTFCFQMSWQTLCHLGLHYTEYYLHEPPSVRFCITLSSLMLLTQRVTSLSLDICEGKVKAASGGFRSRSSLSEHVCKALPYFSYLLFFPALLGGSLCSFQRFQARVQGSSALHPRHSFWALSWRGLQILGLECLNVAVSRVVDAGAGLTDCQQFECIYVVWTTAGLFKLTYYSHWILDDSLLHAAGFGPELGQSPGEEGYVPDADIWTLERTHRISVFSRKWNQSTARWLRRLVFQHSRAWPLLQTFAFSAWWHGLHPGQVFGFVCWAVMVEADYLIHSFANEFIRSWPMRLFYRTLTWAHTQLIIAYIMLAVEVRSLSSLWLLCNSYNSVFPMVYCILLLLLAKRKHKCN
The experiment in a line: Inhibition of GOAT (unknown origin) expressed in intact rat INS1 cells co-expressing pre-proghrelin incubated for 24 hrs. In kind it is cell-based.

For 16 compounds, inhibition results are on record in ChEMBL document CHEMBL4482314, “Small molecule inhibitors of ghrelin O-acyltransferase” (2012).

Active and inactive are the calls of the source. No cut-off for these calls is given here. Where a SMILES comes first, the peptide text is derived from it. [ ]: non-standard residue; d: D form. The star is where a group is joined. Octanoyl = CCCCCCCC(=O)*; Dap = NC[C@H](N)C(=O)O

Turning to `CCCCCCCC(=O)NC[C@H](NC(=O)OCc1ccccc1)C(=O)OC`, the inhibition entry in assay [1] was “inactive”. With `CCCCCCC[S+]([O-])CC[C@H](NC(=O)OCc1ccccc1)C(=O)OC` (some centres not stated), the inhibition result in assay [1] is “Dose-dependent effect”. For `CCCCCCCC(C)(O)C/C=C(/NC(=O)OCc1ccccc1)C(=O)NC(C)C` (configuration not stated), the inhibition result in assay [1] is “Active”. With `CCCCCCCC(O)CC[C@H](NC(=O)C(C)(C)CO)C(=O)OC` (some centres not stated), in assay [2], the inhibition result is “Active”.

Consider `CCCCCCCC(O)/C=C/[C@H](NC(=O)OCc1ccccc1)C(=O)OC` (some centres not stated), for which the inhibition result in assay [3], in assay [4] and in assay [2] was “Active” throughout. Turning to `CCC(C)(O)/C=C/[C@H](NC(=O)OCc1ccccc1)C(=O)OC` (some centres not stated), the inhibition result in assay [1] was “inactive”.

For the compound `CCCCCCCC(=O)NC[C@H](NC(=O)[C@H](CO)NC(=O)CN)C(=O)N[C@@H](Cc1ccccc1)C(=O)N[C@@H](CC(C)C)C(N)=O` (H-GS[Dap](Octanoyl)FL-NH2), in assay [1], the inhibition entry was “Dose-dependent effect”. As to `CCCCCCCC(O)CC[C@H](NC(=O)OCc1ccccc1)C(=O)N[C@H](COC)Cc1ccccc1` (some centres not stated), the inhibition entry in assay [3] is “Active”. For `CCCCCCCC(C)(O)/C=C/[C@H](NC(=O)OCc1ccccc1)C(=O)NC(C)C` (some centres not stated), the inhibition entry in assay [1] was “Active”.

As to `CCCCCCCC(C)(O)/C=C/[C@H](NC(=O)C(C)(C)CO)C(=O)OC` (some centres not stated), the inhibition entry in assay [1] is “inactive”. Same read-out and setting: to `CCCCCCCC(C)(O)/C=C/CNC(=O)OCc1ccccc1` (configuration not stated) belongs “Active”.

As to `CCCCCCCC(C)(O)/C=C/[C@@H](NC(=O)OCc1ccccc1)C(=O)OC` (some centres not stated), the inhibition result in assay [1] and in assay [2] was “Active” throughout. Take `CCCCCCCC(O)CC[C@H](NC(=O)C(C)(C)CO)C(=O)N[C@H](COC)Cc1ccccc1` (some centres not stated): the inhibition result in assay [4] and in assay [2] was “Active” in each case. Regarding `CCCCCCCC(C)(O)/C=C/[C@H](NC(=O)OCc1ccccc1)C(=O)OC` (some centres not stated), the inhibition entry in assay [3] and in assay [5] was “Active” each time. In assay [1], the inhibition entry is “Dose-dependent effect”. With `CCCCCCCC(C)(O)/C=C/[C@H](NC(=O)C(C)(C)CO)C(=O)N[C@@H](Cc1ccccc1)C(=O)N[C@@H](CC(C)C)C(N)=O` (some centres not stated), the inhibition result in assay [1] is “Active”.

As for `CCCCCCCC(=O)CC[C@H](NC(=O)OCc1ccccc1)C(=O)OC`, in assay [3], the inhibition result is “Active”.
